Laboratory results reported in patent publication US20080311657A1, “Killing Human Lymphoma and Leukemia Cancer Cells and Tcr-Activated Normal Human Cells By Dopamine D1r Agonists” (priority 2005, published 2008).

Tests used:
Format in all cases: cell-based
[1] = test system: resting normal human T-cells; experiment: Number of living cells counted by flow cytometry (FACSort) after D1R agonist
Experimental: (§1) Afterwards, the microtiter plates were placed in an incubator (37° C., humidified incubator, 5% CO2) for 3 days. Then, the number of living cells was evaluated by flow cytometry (the cells were counted by FACsort for a fixed time length of 1 min, in which 100 microliter of each sample was tested).
FIGS. 31A and B are graphs showing that A 77636 hydrochloride kills much more TCR-activated (FIG. 31B) than resting normal (FIG. 31A) human T-cells. […] The cells were then transferred to the incubator for 72 hr incubation. At the end of the 72 hr incubation, the number of living cells in each well was evaluated by flow cytometry (the cells were counted by FACsort for a fixed time length of 1 min, in which 100 microliter of each sample was tested).
(§2) Cell viability was tested afterwards.

[2] = test system: Human Burkitt's B-lymphoma cells (Raji); experiment: Cell death by LDH release (CytoTox 96); conditions: 10^−4M
Experimental: Human Burkitt's B-lymphoma cells (Raji) were seeded in 96 well plates (0.5 ml per well of 0.5 million cells/ml) and A 77636 hydrochloride was added and diluted 1:00 into the wells, at a fixed starting concentration of 10^−2M, so that the final concentration tested was 10^−4M. The cells were then transferred to an incubator (37° C., humidified incubator, 5% CO2) for 1 min, 10 min, 30 min, 60 min or 120 min incubation.

[3] = test system: Human T-cell leukemia (Jurkat) cells; experiment: Number of living cells counted by flow cytometry (FACSort) after D1R agonist
Experimental: as §1, with “tested). Of note, A 77636 hydrochloride is an orally-active D1R agonist, according to the manufacturer (Tocris).” for “tested).”
as §1
The experiment was designed to test the effect of exposing the cells to the D1R agonist for 1 min, 15 min, 1 hr or 72 hr. Thus, 1 min, or 15 min or 1 hr after the addition of the D1R agonist, the corresponding cells were transferred into tubes, centrifuged (1000 rpm for 10 min); and the supernatant was removed. […] Thus, its medium was not replaced, and these cells and remained as such in the incubator for 72 hr. At the end of the 72 hr incubation, the number of living cells was evaluated by flow cytometry (the cells were counted by FACsort for a fixed time length of 1 min, in which 100 microliter of each sample was tested).
as §2
For this purpose, the Jurkat T-cell leukemia line, the HuT-78 human T-lymphoma (cutaneous “Sezary” T-lymphoma) line, and the K-562 human Chronic-Myeloid Leukemia (CML) and Daudi Human B-lymphoma (Burkitt's lymphoma) lines were seeded in tissue culture wells (0.5 million cells/0.5 ml/well).
Cell survival/death was evaluated 3 days later by counting the number of living cells, using flow cytometry.

[4] = test system: Human chronic myelogenous leukemia cells (CML) (K-562); experiment: as above; conditions: for % of the cells killed: living cells counted 3 days later
[5] = test system: Human Burkitt's B-cell lymphoma (Raji) cells; experiment: as above; conditions: 10^−3M-10^−6M, 3 days
Experimental: as §1, §2

[6] = 10^−4M, exposure 1 min, 15 min, 1 hr or 72 hr

SMILES: Cl.NC[C@@H]1O[C@H](C23CC4CC(CC(C4)C2)C3)Cc2c1ccc(O)c2O [A 77636 hydrochloride, (1R-cis)-1-(aminomethyl)-3,4-dihydro-3-tricyclo[3.3.1.13,7]dec-1-yl-[1H]-2-benzopyran-5,6-diol hydrochloride]
- Killing effect by number of living cells (FIGS. 25-27), in words ([1]; 10^−3M-10^−6M, 3 days): significantly milder killing effect
- % of cells killed ([1]; 10^−5 M, 72 hr): 12%
- Exposure time at which extent of cell death reaches a plateau ([2]; LDH release): 1 h
- Elevation in the release of LDH ([2]; exposure for 1 minute): ≈ 3 fold
- Speed of cell death by LDH release (FIG. 28), in words ([2]; 1, 10, 30, 60 or 120 min): very rapid death
- Cell death by number of living cells (FIGS. 10-12), in words ([3]; 10^−3M-10^−6M, 3 days): induces marked cell death
- Killing, in words ([3]; 10^−4M, 1 min incubation then washed, living cells counted 3 days later): not sufficient to cause marked cell death
- Killing, in words ([3]; 10^−4M, 15 minutes then washed, living cells counted 3 days later): significant
- % of the cells killed (maximum) ([3]; 10^−4M, 1 hour of incubation then washed, living cells counted 3 days later): 94%
- Killing, in words ([3]; 10^−4M, 72 hour incubation): no further effect
- Speed of cell death by number of living cells (FIG. 30), in words [3, 6]: very rapid death
- Cell death by number of living cells (FIGS. 22-24), in words ([4]; 10^−3M-10^−6M, 3 days): induces marked cell death
- % of the cells killed ([4]; 10^−4M, exposure 1 minute then washed): ≈ 48%
- % of the cells killed ([4]; 10^−4M, exposure 15 minutes then washed): 60%
- % of the cells killed ([4]; 10^−4M, exposure 1 hour then washed): 76%
- Killing, in words ([4]; 10^−4M, incubation 72 hours): no additional value beyond the 1-hour effect
- Speed of cell death by number of living cells (FIG. 29), in words [4, 6]: very rapid death
- Cell death by number of living cells (FIGS. 19-21), in words [5]: induces marked cell death
